Source: article PMC4860947 (Nature, 2016)

Experiments:
[1] = test system: C. glabrata PDR1 wild-type or PDR1^L280F strains; set-up: species or system Candida glabrata; conditions: in vivo
C. glabrata [2] = test: Mouse disseminated fungal burden model; format: in vivo, Candida glabrata; conditions: mice, CgPDR1 wild-type strain; 25 mg/kg fluconazole (low FLU) alone
C. glabrata [3] = format: in vivo, Candida glabrata; conditions: mice; fluconazole 100 mg/kg/day, 7 days
[4] = test system: C. glabrata strains with wild-type or gain-of-function CgPDR1; format: cell-based, Candida glabrata; conditions: azole alone
[5] = test system: C. glabrata adherence to CHO-Lec2 cells; test: Yeast adherence to CHO-Lec2 epithelial cells; format: cell-based, Candida glabrata; conditions: ketoconazole 40 µM alone, last 15 minutes

Structure (SMILES) | survival of G. mellonella larvae [1] | survival of G. mellonella larvae compared to vehicle [1] | tissue fungal burden (C. glabrata [2]) | fungal burden in the bladder and kidney (C. glabrata [3]) | sensitivity of CgPDR1 wild-type strain to azole on plates [4] | relative adherence of PDR1^L280F mutant to epithelial (CHO-Lec2) cells [5]
OC(Cn1cncn1)(Cn1cncn1)c1ccc(F)cc1F [fluconazole] | sensitive to fluconazole alone | did not significantly increase survival | poorly reduced tissue burden | significantly reduces fungal burden |  | 
CC(=O)N1CCN(c2ccc(OCC3COC(Cn4ccnc4)(c4ccc(Cl)cc4Cl)O3)cc2)CC1 (stereo not drawn) [ketoconazole] |  |  |  |  | sensitive | reduced relative adherence to levels comparable to a PDR1 wild-type strain
